For orientation: fraction unbound means the share of the substance not bound to proteins or other matrix. Low values mean little free substance, high ones much free substance. In general, bioavailability refers to the share of a dose that reaches the circulation, judged against a reference dose that is usually intravenous. A higher bioavailability goes with much systemic uptake. As usually defined, the logD is the decadic logarithm of the distribution of all forms, ionised or not, between an organic phase and buffer at a given pH. A high value points to a more lipophilic compound. Broadly, the half-life is the time in which the quantity being followed falls by half. Read a low half-life as fast loss.

23 compounds from ChEMBL document CHEMBL3774369, “Tetrahydroisoquinoline Phenols: Selective Estrogen Receptor Downregulator Antagonists with Oral Bioavailability in Rat” (ACS Med Chem Lett, 2016) can be followed below.

The nature of data set [1]: Intrinsic clearance in human hepatocytes assessed per 10^6 cells. It counts as ADME, cell-based, Hepatocyte. The following applies: read-out: CLH.
Data set [2] is described as follows: Percentage unbound in Han Wistar rat plasma by equilibrium dialysis method. It counts as ADME, cell-free. Background: In equilibrium dialysis only unbound substance equilibrates across the membrane.
Data set [3] is described as follows: Intrinsic clearance in Han Wistar rat hepatocytes assessed per 10^6 cells. Conditions: read-out: CLH. Format: ADME, cell-based, Hepatocyte.
The nature of data set [4]: Percentage unbound in human plasma by equilibrium dialysis method. It counts as ADME, cell-free.
The nature of data set [5]: in vivo. The following applies: rat, po, 1 mg/kg.
Data set [6] can be described thus: physchem. Conditions: buffer, pH 7.4.
The nature of data set [7]: Volume of distribution at steady state in rat at 0.5 mg/kg, iv or 1 mg/kg, po. The following applies: in vivo, read-out: Vdss. Format: ADME, organism-based.
Data set [8] in a line: Half life in rat at 1 mg/kg, po. The following applies: in vivo. Format: ADME, organism-based.
The nature of data set [9]: Clearance in rat at 0.5 mg/kg, iv or 1 mg/kg, po. It counts as ADME, organism-based. The following applies: in vivo.
Data set [10] is described as follows: Half life in rat at 0.5 mg/kg, iv. Format: ADME, organism-based. Conditions: in vivo.

Take `C[C@H](CF)CN1[C@H](c2ccc(/C=C/C(=O)O)cc2)c2ccc(O)cc2C[C@H]1C`: the hepatocyte CLint amounted to 100 µL/min/1e6 cells in data set [1] and 47 µL/min/1e6 cells in data set [3]. Also, the figures for the free fraction (fraction unbound) in [2] and in data set [4] were 0.024 and 0.026, respectively.
`CC(C)CN1[C@H](c2c(F)cc(/C=C/C(=O)O)cc2F)c2ccc(O)cc2CC1(C)C`: the hepatocyte CLint in data set [1] was 33 µL/min/1e6 cells; in [3], 34 µL/min/1e6 cells. In addition, the fraction unbound in data set [2] worked out at 0.004; in [4], 0.005. In [5], the bioavailability was over 70%. The pH-dependent lipophilicity (logD) in [6] was 2.7.
`C[C@H](CF)CN1[C@H](c2c(F)cc(/C=C/C(=O)O)cc2F)c2ccc(O)cc2CC1(C)C`: the values for the hepatocyte CLint in data set [1] and in data set [3] were 39 µL/min/1e6 cells and 68 µL/min/1e6 cells, respectively. Also, the unbound share (fraction unbound) in data set [2] was 0.005; in data set [4] it was 0.002. This compound had a logD in data set [6] of 3.1.
Regarding `C[C@H](CF)CN1[C@H](c2ccc(/C=C/C(=O)O)cc2)c2ccc(O)cc2CC1(C)C`, the hepatocyte CLint turned out to be 14 µL/min/1e6 cells in [1] and 24 µL/min/1e6 cells in data set [3]. Further, the fraction unbound in [2] is 0.028; in data set [4], 0.01. In [5], this compound displayed a bioavailability of over 70%. The logD in data set [6] was 1.8.
With `C[C@@H]1Cc2cc(O)ccc2[C@@H](c2c(F)cc(/C=C/C(=O)O)cc2F)N1CC(C)(C)F`, the hepatocyte CLint in data set [1] stood at 78 µL/min/1e6 cells; in [3], 74 µL/min/1e6 cells. Moreover, the fraction unbound is 0.011 in data set [2] and 0.023 in data set [4]. In data set [6], the log distribution coefficient (logD) came to 2.1.
Regarding `COC[C@H](C)CN1[C@H](c2ccc(/C=C/C(=O)O)cc2)c2ccc(O)cc2C[C@H]1C`, the hepatocyte CLint in [1] came to 7 µL/min/1e6 cells; in data set [3], 27 µL/min/1e6 cells. For the same compound, the Vd in data set [7] was 0.6 L/kg. The fraction unbound in data set [2] was found to be 0.12; in data set [4] it was 0.16. In addition, the half-life in data set [8] was 1.9 h; in data set [10], 0.2 h. This compound also came in with a bioavailability in data set [5] of 3%. In data set [9], this compound returned a clearance of 63 mL/min/kg. This compound registered a pH-dependent lipophilicity (logD) in data set [6] of 1.
As for `COC[C@H](C)CN1[C@H](c2c(F)cc(/C=C/C(=O)O)cc2F)c2ccc(O)cc2C[C@H]1C`, the hepatocyte CLint in data set [1] is 45 µL/min/1e6 cells; in data set [3], 110 µL/min/1e6 cells. The free fraction (fraction unbound) in data set [2] was determined as 0.053; in data set [4], 0.038. This compound gave a logD in data set [6] of 1.6.
The like results for `Cc1c(O)ccc2c1CCN(CC(C)C)[C@@H]2c1ccc(/C=C/C(=O)O)cc1` were, in that order, 9 µL/min/1e6 cells, 32 µL/min/1e6 cells, 0.063, 0.024 and 1.6.
Taken in the same sequence, the figures for `Cc1cc2c(cc1O)CCN(CC(C)C)[C@@H]2c1ccc(/C=C/C(=O)O)cc1` were 17 µL/min/1e6 cells, 17 µL/min/1e6 cells, 0.088, 0.091 and 1.8.
As to `CC(C)CN1[C@H](C)Cc2cc(O)ccc2[C@@]1(C)c1ccc(/C=C/C(=O)O)cc1`, the results for the hepatocyte CLint in data set [1] and in data set [3] were 18 µL/min/1e6 cells and 15 µL/min/1e6 cells, respectively. Besides, in [7], the Vd stood at 1.6 L/kg. In addition, the fraction unbound was 0.013 in [2] and 0.015 in data set [4]. In addition, the half-life in data set [8] is 5.6 h; in data set [10], 2.4 h. The bioavailability in [5] came out at 33%. The clearance in data set [9] amounted to 19 mL/min/kg. The logD in data set [6] is 2.7.
Take `C[C@@H]1Cc2cc(O)ccc2[C@@H](c2ccc(/C=C/C(=O)O)cc2)N1c1ccc(OC(F)(F)F)cc1`: the hepatocyte CLint in data set [1] and in [3] was 9 µL/min/1e6 cells in each case. Besides, the Vd in data set [7] amounted to 1.1 L/kg. For the same compound, the values for the free fraction (fraction unbound) in [2] and in data set [4] were 0.0002 and 0.009, respectively. Besides, the half-life in data set [8] was 6.7 h; in data set [10], 4.2 h. In data set [9], this compound yielded a clearance of 4.2 mL/min/kg. The log distribution coefficient (logD) in data set [6] was 4.2.
For `CC(C)CN1[C@H](c2ccc(/C=C/C(=O)O)cc2)c2ccccc2C[C@H]1C`, the results for the hepatocyte CLint in [1] and in [3] were 45 µL/min/1e6 cells and 24 µL/min/1e6 cells, respectively. Further, the fraction unbound is 0.016 in [2] and 0.021 in data set [4]. In addition, the log distribution coefficient (logD) in [6] turned out to be 2.5.
With `COc1ccc2c(c1)C[C@@H](C)N(CC(C)C)[C@@H]2c1ccc(/C=C/C(=O)O)cc1`, the hepatocyte CLint in data set [1] was 56 µL/min/1e6 cells; in [3], 43 µL/min/1e6 cells. For the same compound, the values for the fraction unbound in data set [2] and in [4] were 0.034 and 0.02, respectively. This compound came in with a logD in data set [6] of 2.3.
Take `CC(C)CN1[C@H](c2ccc(/C=C/C(=O)O)cc2)c2ccc(O)cc2CC1(C)C`: the results for the hepatocyte CLint in data set [1] and in data set [3] were 6 µL/min/1e6 cells and 7 µL/min/1e6 cells, respectively. In addition, the Vd in data set [7] came out at 5.9 L/kg. The fraction unbound in data set [2] came to 0.11; in data set [4] it was 0.035. The half-life is 7.4 h in data set [8] and 5.8 h in data set [10]. The bioavailability in [5] amounted to 66%. For the same compound, the clearance in [9] was found to be 21 mL/min/kg. This compound showed a logD in data set [6] of 1.5.
As to `O=C(O)/C=C/c1ccc(C2c3ccc(O)cc3CCN2c2ccccc2)cc1` (stereo not given), the hepatocyte CLint in [1] was found to be 67 µL/min/1e6 cells; in [3], 87 µL/min/1e6 cells. The unbound share (fraction unbound) in data set [2] and in [4] was 0.012 throughout. In [6], this compound displayed a logD of 2.4.
With `O=C(O)/C=C/c1ccc(C2c3ccc(O)cc3CCN2c2ccc(OC(F)(F)F)cc2)cc1` (stereo not given), the hepatocyte CLint in data set [1] was found to be 11 µL/min/1e6 cells; in [3] it was 20 µL/min/1e6 cells. Besides, the fraction unbound in [2] and in [4] was 0.0006 throughout. Further, the pH-dependent lipophilicity (logD) in data set [6] was 3.7.
Take `CC(C)(F)CN1[C@H](c2ccc(/C=C/C(=O)O)cc2)c2ccc(O)cc2CC1(C)C`: the hepatocyte CLint in [1] is 19 µL/min/1e6 cells; in data set [3], 59 µL/min/1e6 cells. Besides, the unbound share (fraction unbound) was determined as 0.025 in data set [2] and 0.007 in [4]. In data set [6], this compound registered a log distribution coefficient (logD) of 2.3.
Taken in the same sequence, the figures for `COC[C@H](C)CN1[C@H](c2c(F)cc(/C=C/C(=O)O)cc2F)c2ccc(O)cc2CC1(C)C` were 88 µL/min/1e6 cells, 180 µL/min/1e6 cells, 0.042, 0.01 and 2.
Regarding `CC(C)CN1CCc2cc(O)ccc2[C@@]1(C)c1ccc(/C=C/C(=O)O)cc1`, the hepatocyte CLint in [1] amounted to 40 µL/min/1e6 cells; in data set [3], 33 µL/min/1e6 cells. The fraction unbound in data set [2] was determined as 0.019; in data set [4], 0.009. In [6], this compound yielded a pH-dependent lipophilicity (logD) of 2.2.
Taken in the same sequence, the figures for `C[C@H](CF)CN1[C@H](c2c(F)cc(/C=C/C(=O)O)cc2F)c2ccc(O)cc2C[C@H]1C` were 170 µL/min/1e6 cells, 94 µL/min/1e6 cells, 0.01, 0.009 and 2.5.
Turning to `CC(C)CN1CCc2cc(O)ccc2[C@@H]1c1ccc(/C=C/C(=O)O)cc1`, the hepatocyte CLint was 4 µL/min/1e6 cells in [1] and 49 µL/min/1e6 cells in data set [3]. For the same compound, the free fraction (fraction unbound) in data set [2] turned out to be 0.087; in [4] it was 0.019. Further, in [6], the pH-dependent lipophilicity (logD) was determined as 1.4.
The like results for `O=C(O)/C=C/c1ccc(C2c3ccc(O)cc3CCN2Cc2ccccc2)cc1` (stereo not given) were, in that order, 150 µL/min/1e6 cells, 40 µL/min/1e6 cells, 0.013, 0.007 and 2.2.
For `CC(C)CN1CCc2cc(O)ccc2[C@H]1c1ccc(/C=C/C(=O)O)cc1`, the hepatocyte CLint in data set [1] and in [3] was 38 µL/min/1e6 cells in each case. Besides, in [7], the Vd turned out to be 0.5 L/kg. Also, the fraction unbound was determined as 0.037 in data set [2] and 0.063 in [4]. Moreover, the results for the half-life in data set [8] and in data set [10] were 3 h and 0.2 h, respectively. In data set [5], the bioavailability was 26%. The compound further yielded a clearance in data set [9] of 44 mL/min/kg. Moreover, in data set [6], the logD turned out to be 1.3.
